# Measurements from patent US20130281465A1, “PYRAZOLE DERIVATIVE” (TAISHO PHARMACEUTICAL CO., LTD., priority 2010, published 2013).
# Key:
# [1] = target: T1, orexin type 2 receptor (hOX2R) (Homo sapiens, UniProt O43614); test: Orexin receptor antagonistic activity, intracellular Ca2+ fluorescence (FDSS) in CHO cells expressing hOX2R; assay type: cell-based; conditions: CHO cells forced to express hOX2R; orexin-A analogue peptide ligand 3 nM; Fluo-4 maximum fluorescence; read-out: IC50 value OX2R
# T1 construct: expressed in transfected cells; host or cells: Chinese hamster ovary (CHO) cells
# T1 sequence (O43614 1-444): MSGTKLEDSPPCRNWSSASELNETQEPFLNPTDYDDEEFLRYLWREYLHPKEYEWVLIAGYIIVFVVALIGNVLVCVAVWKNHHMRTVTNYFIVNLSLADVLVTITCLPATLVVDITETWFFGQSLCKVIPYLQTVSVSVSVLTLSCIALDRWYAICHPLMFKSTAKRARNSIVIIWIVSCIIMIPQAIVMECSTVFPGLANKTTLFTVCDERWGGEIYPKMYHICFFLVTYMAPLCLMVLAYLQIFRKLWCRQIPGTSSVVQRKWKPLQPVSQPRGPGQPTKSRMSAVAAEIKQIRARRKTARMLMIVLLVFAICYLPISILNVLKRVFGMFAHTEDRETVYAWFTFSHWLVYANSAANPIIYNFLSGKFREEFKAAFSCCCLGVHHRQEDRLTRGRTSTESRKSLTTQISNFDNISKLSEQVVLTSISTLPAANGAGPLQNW
# Experimental: (§1) The antagonistic activity of each test compound against human orexin type 1 receptor (hOX1R) and orexin type 2 receptor (hOX2R) was performed as described in the literature with a modification (Toshikatsu Okumura et al., Biochemical and Biophysical Research Communications 280, 976-981, 2001). Chinese hamster ovary (CHO) cells forced to express hOX1R or hOX2R were seeded at 20,000 cells/well on a 96 well Black clear bottom plates (Nunc) and cultured for 16 hours under conditions of 37° C. and 5% CO2 using a Ham's F-12 medium containing 0.1 mM MEM non-essential amino acids, 0.5 mg/ml G418, and 10% fetal bovine serum (all from Invitrogen Corp.). After removal of the medium, 100 μL of the assay buffer (25 mM HEPES (Dojindo Laboratories), Hanks' balanced salt solution (Invitrogen Corp.), 0.1% bovine serum albumin, 2.5 mM probenecid, 200 μg/ml Amaranth (all from Sigma-Aldrich Corp.), pH 7.4) containing 0.5 μM Fluo-4AM ester (Dojindo Laboratories) was added thereto, and the cells were incubated for 60 minutes under conditions of 37° C. and 5% CO2. After removal of the buffer solution for assay containing Fluo-4AM ester, the test compound was dissolved at a concentration of 10 mM in dimethyl sulfoxide and diluted with the assay buffer, and 150 μL of the diluted solution was then added to each wells, which were then incubated for 30 minutes.
# (§2) A peptide (Pyr-[…]11e-Leu-Thr-Leu-NH2; Peptide Institute, Inc.) substituted 2 amino acids of human orexin-A was diluted with the assay buffer to 300 pM (final concentration for hOX1R) or 3 nM (final concentration for hOX2R). 50 μL of this ligand solution was added thereto to start reaction. During the reaction, the fluorescence value of each well was measured every one second for 3 minutes using Functional Drug Screening System (FDSS; manufactured by Hamamatsu Photonics K.K.), and antagonistic activity was determined with the maximum fluorescence value as an index for intracellular Ca^2+ concentration. The antagonistic activity of the test compound was calculated with the fluorescence value of a well supplemented with only a dilution buffer solution as 100% and the fluorescence value of a well supplemented with a buffer solution containing neither the ligand nor the compound as 0%, and determined in terms of 50% inhibitory concentration (IC50 value) from fluorescence values derived from the test compound added at varying concentrations.
# [2] = target: T2, human orexin type 1 receptor (hOX1R) (Homo sapiens, UniProt O43613); test: Orexin receptor antagonistic activity, intracellular Ca2+ fluorescence (FDSS) in CHO cells expressing hOX1R; assay type: cell-based; conditions: CHO cells forced to express hOX1R; orexin-A analogue peptide ligand 300 pM; Fluo-4 maximum fluorescence; read-out: IC50 value OX1R
# T2 construct: expressed in transfected cells; host or cells: Chinese hamster ovary (CHO) cells
# T2 sequence (O43613 1-425): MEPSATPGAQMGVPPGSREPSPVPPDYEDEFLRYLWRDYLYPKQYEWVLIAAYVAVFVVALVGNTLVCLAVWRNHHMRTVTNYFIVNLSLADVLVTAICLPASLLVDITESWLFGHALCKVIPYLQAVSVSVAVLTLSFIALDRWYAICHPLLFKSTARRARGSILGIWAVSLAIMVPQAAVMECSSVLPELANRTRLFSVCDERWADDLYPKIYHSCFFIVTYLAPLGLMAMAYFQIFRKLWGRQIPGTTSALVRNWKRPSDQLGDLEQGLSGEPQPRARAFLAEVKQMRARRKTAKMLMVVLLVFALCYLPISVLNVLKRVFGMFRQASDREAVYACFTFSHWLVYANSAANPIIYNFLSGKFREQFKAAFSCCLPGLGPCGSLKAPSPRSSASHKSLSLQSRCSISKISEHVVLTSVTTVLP
# Experimental: as §1, §2
SMILES,IC50 [1] [nM],IC50 [2] [nM]
"CCN(CCn1ccc(-c2ccc(F)cn2)n1)C(=O)c1cc(F)ccc1-n1nccn1 [Example 24, N-ethyl-N-{2-[3-(5-fluoropyridin-2-yl)-1H-pyrazol-1-yl]ethyl}-5-fluoro-2-(2H-1,2,3-triazol-2-yl)benzamide]",12.2,7.2
"CCN(CCn1ccc(-c2ccc(F)cn2)n1)C(=O)c1cc(C)ccc1-c1ncccn1 [Example 26, N-ethyl-N-{2-[3-(5-fluoropyridin-2-yl)-1H-pyrazol-1-yl]ethyl}-5-methyl-2-(pyrimidin-2-yl)benzamide]",3.7,1.4
"Cc1ccc(-n2nccn2)c(C(=O)N(CCn2ccc(-c3ccc(F)cc3)n2)CC2CC2)c1 [Example 28, N-(cyclopropylmethyl)-N-{2-[3-(4-fluorophenyl)-1H-pyrazol-1-yl]ethyl}-5-methyl-2-(2H-1,2,3-triazol-2-yl)benzamide]",4,1.2
"Cc1ccc(-n2nccn2)c(C(=O)N(CCn2ccc(-c3ccccc3)n2)CC2CC2)c1 [Example 29, N-(cyclopropylmethyl)-5-methyl-N-[2-(3-phenyl-1H-pyrazol-1-yl)ethyl]-2-(2H-1,2,3-triazol-2-yl)benzamide]",6.1,1.5
"Cc1ccc(-n2nccn2)c(C(=O)N(CCn2ccc(-c3ccc(F)cn3)n2)C2CC2)c1 [Example 30, N-cyclopropyl-N-{2-[3-(5-fluoropyridin-2-yl)-1H-pyrazol-1-yl]ethyl}-5-methyl-2-(2H-1,2,3-triazol-2-yl)benzamide]",1.8,1.3
"Cc1ccc(-n2nccn2)c(C(=O)N(CCn2ccc(-c3ccc(F)cn3)n2)C2COC2)c1 [Example 31, N-{2-[3-(5-fluoropyridin-2-yl)-1H-pyrazol-1-yl]ethyl}-5-methyl-N-(oxetan-3-yl)-2-(2H-1,2,3-triazol-2-yl)benzamide]",26.9,24.9
"CCN(CCn1ccc(-c2ccc(F)cn2)n1)C(=O)c1ccccc1-c1ncccn1 [Example 34, N-ethyl-N-{2-[3-(5-fluoropyridin-2-yl)-1H-pyrazol-1-yl]ethyl}-2-(pyrimidin-2-yl)benzamide]",8.9,8.4
"CCN(CCn1ccc(-c2cccc(C)n2)n1)C(=O)c1cc(C)ccc1-n1nccn1 [Example 39, N-ethyl-5-methyl-N-{2-[3-(6-methylpyridin-2-yl)-1H-pyrazol-1-yl]ethyl}-2-(2H-1,2,3-triazol-2-yl)benzamide]",2.2,1.5
"CCN(CCn1ccc(-c2ccc(F)cn2)n1)C(=O)c1cc(Cl)ccc1-c1ncccn1 [Example 43, N-ethyl-5-chloro-N-{2-[3-(5-fluoropyridin-2-yl)-1H-pyrazol-1-yl]ethyl}-2-(pyrimidin-2-yl)benzamide]",3.5,1.8
"CCN(CCn1ccc(-c2ccc(F)cn2)n1)C(=O)c1ccc(F)cc1-n1nccn1 [Example 44, N-ethyl-4-fluoro-N-{2-[3-(5-fluoropyridin-2-yl)-1H-pyrazol-1-yl]ethyl}-2-(2H-1,2,3-triazol-2-yl)benzamide]",29.8,17.3
"CCN(CCn1ccc(-c2ccc(F)cn2)n1)C(=O)c1c(F)cccc1-n1nccn1 [Example 45, N-ethyl-2-fluoro-N-{2-[3-(5-fluoropyridin-2-yl)-1H-pyrazol-1-yl]ethyl}-6-(2H-1,2,3-triazol-2-yl)benzamide]",46.9,38.7
"CCN(CCn1ccc(-c2ccc(F)cn2)n1)C(=O)c1c(F)cccc1-c1ncccn1 [Example 46, N-ethyl-2-fluoro-N-{2-[3-(5-fluoropyridin-2-yl)-1H-pyrazol-1-yl]ethyl}-6-(pyrimidin-2-yl)benzamide]",149,92.5
"CCN(CCn1ccc(-c2ccc(F)cn2)n1)C(=O)c1ccc(C)cc1-n1nccn1 [Example 47, N-ethyl-N-{2-[3-(5-fluoropyridin-2-yl)-1H-pyrazol-1-yl]ethyl}-4-methyl-2-(2H-1,2,3-triazol-2-yl)benzamide]",7.1,0.8
"CCN(CCn1ccc(-c2ccc(F)cn2)n1)C(=O)c1cccc(F)c1-n1nccn1 [Example 48, N-ethyl-3-fluoro-N-{2-[3-(5-fluoropyridin-2-yl)-1H-pyrazol-1-yl]ethyl}-2-(2H-1,2,3-triazol-2-yl)benzamide]",10.3,5.5
"CCN(CCn1ccc(-c2ccc(F)cn2)n1)C(=O)c1cc(OC)ccc1-n1nccn1 [Example 50, N-ethyl-N-{2-[3-(5-fluoropyridin-2-yl)-1H-pyrazol-1-yl]ethyl}-5-methoxy-2-(2H-1,2,3-triazol-2-yl)benzamide]",214,20

# Second part, the molecule after the results:
IC50 [1] [nM],IC50 [2] [nM],SMILES
43.6,20.9,"Cc1ccc(-n2nccn2)c(C(=O)N(CCn2ccc(-c3ccc(F)cn3)n2)C(C)C)c1 [Example 27, N-{2-[3-(5-fluoropyridin-2-yl)-1H-pyrazol-1-yl]ethyl}-5-methyl-N-(propan-2-yl)-2-(2H-1,2,3-triazol-2-yl)benzamide]"
6.6,9,"CCN(CCn1ccc(-c2ccc(F)cn2)n1)C(=O)c1ccccc1-n1nccn1 [Example 32, N-ethyl-N-{2-[3-(5-fluoropyridin-2-yl)-1H-pyrazol-1-yl]ethyl}-2-(2H-1,2,3-triazol-2-yl)benzamide]"
2.2,6.5,"CCN(CCn1ccc(-c2ccc(F)cn2)n1)C(=O)c1cc(Cl)ccc1-n1nccn1 [Example 33, 5-Chloro-N-ethyl-N-{2-[3-(5-fluoropyridin-2-yl)-1H-pyrazol-1-yl]ethyl}-2-(2H-1,2,3-triazol-2-yl)benzamide]"
11.7,1.8,"CCN(CCn1ccc(-c2ccc(F)cn2)n1)C(=O)c1cc(C)ccc1-c1ccccn1 [Example 35, N-ethyl-N-{2-[3-(5-fluoropyridin-2-yl)-1H-pyrazol-1-yl]ethyl}-5-methyl-2-(pyridin-2-yl)benzamide]"
58.9,30.6,"CCN(CCn1ccc(-c2ccc(F)cn2)n1)C(=O)c1cc(C)ccc1-c1cccnc1 [Example 36, N-ethyl-N-{2-[3-(5-fluoropyridin-2-yl)-1H-pyrazol-1-yl]ethyl}-5-methyl-2-(pyridin-3-yl)benzamide]"
301,110,"CCN(CCn1cc(-c2ccc(F)cn2)cn1)C(=O)c1ccccc1-c1ncccn1 [Example 37, N-ethyl-N-{2-[4-(5-fluoropyridin-2-yl)-1H-pyrazol-1-yl]ethyl}-2-(pyrimidin-2-yl)benzamide]"
7.6,0.5,"CCN(CCn1ccc(-c2ccc(F)cn2)n1)C(=O)c1cc(F)ccc1-c1ncccn1 [Example 41, N-ethyl-5-fluoro-N-{2-[3-(5-fluoropyridin-2-yl)-1H-pyrazol-1-yl]ethyl}-2-(pyrimidin-2-yl)benzamide]"
48.8,7.1,"CCN(CCn1ccc(-c2ccc(F)cn2)n1)C(=O)c1ccc(F)cc1-c1ncccn1 [Example 49, N-ethyl-4-fluoro-N-{2-[3-(5-fluoropyridin-2-yl)-1H-pyrazol-1-yl]ethyl}-2-(pyrimidin-2-yl)benzamide]"
